Laboratory results from ChEMBL document CHEMBL1201862, “PubChem BioAssay data set” (2004).
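Five compound concentrations were applied to cells in 96-well plates for 48 hours; endpoints were derived by simple linear interpolation of the resulting dose-response curve. GI50 is the concentration that inhibits growth by half.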 Active and inactive are the calls of the source. Cut-off read from the data, not from the text of the source: active = GI50 up to about 1.1 µM and inactive = higher.

What was measured:
Assay in all cases: inhibition of tumour cell growth, NCI panel, 48 h
K562 = test system: K562
NCI-H522 = test system: NCI-H522
SF-539 = test system: SF-539
HCC 2998 = test system: HCC 2998
SW-620 = test system: SW-620
OVCAR-4 = test system: OVCAR-4
HOP-92 = test system: HOP-92
HCT-15 = test system: HCT-15
SF-295 = test system: SF-295
RPMI-8226 = test system: RPMI-8226
UACC-62 = test system: UACC-62
SK-MEL-5 = test system: SK-MEL-5
KM12 = test system: KM12
CAKI-1 = test system: CAKI-1
NCI/ADR-RES = test system: NCI/ADR-RES
IGROV-1 = test system: IGROV-1
NCI-H460 = test system: NCI-H460
A498 = test system: A498
UO-31 = test system: UO-31
Hs-578T = test system: Hs-578T

Row | SMILES | GI50 (K562) | GI50 (NCI-H522) | GI50 (SF-539) | GI50 (HCC 2998) | GI50 (SW-620) | GI50 (OVCAR-4) | GI50 (HOP-92) | GI50 (HCT-15) [µM] | GI50 (SF-295) | GI50 (RPMI-8226) | GI50 (UACC-62) | GI50 (SK-MEL-5) | GI50 (KM12) | GI50 (CAKI-1) | GI50 (NCI/ADR-RES) | GI50 (IGROV-1) | GI50 (NCI-H460) | GI50 (A498) | GI50 (UO-31) | GI50 (Hs-578T)
1 | O=C1C(Cl)=C(NCCc2ccc(O)cc2)C(=O)c2c(O)ccc(O)c21 | > 10 µM (inactive) | > 10 µM (inactive) | 6.58 µM (inactive) | > 10 µM (inactive) | > 10 µM (inactive) | > 10 µM (inactive) | > 10 µM (inactive) | > 10 | 9.82 µM (inactive) | > 10 µM (inactive) | 3.74 µM (inactive) | 3.72 µM (inactive) | 7.28 µM (inactive) | > 10 µM (inactive) | 3.76 µM (inactive) | > 10 µM (inactive) | 7.46 µM (inactive) | – | – | –
2 | COc1ccc(O)c(C#N)c1C#N.COc1ccc(OC)c(C#N)c1C#N | > 100 µM (inactive) | – | > 100 µM (inactive) | > 100 µM (inactive) | > 100 µM (inactive) | > 100 µM (inactive) | > 100 µM (inactive) | > 100 | > 100 µM (inactive) | > 100 µM (inactive) | > 100 µM (inactive) | > 100 µM (inactive) | > 100 µM (inactive) | > 100 µM (inactive) | > 100 µM (inactive) | > 100 µM (inactive) | > 100 µM (inactive) | > 100 µM (inactive) | > 100 µM (inactive) | –
3 | O=[N+]([O-])c1ccc(NC2OCC(O)C(O)C2O)cc1 (stereo not drawn) | > 100 µM (inactive) | > 100 µM (inactive) | > 100 µM (inactive) | > 100 µM (inactive) | > 100 µM (inactive) | > 100 µM (inactive) | > 100 µM (inactive) | > 100 | > 100 µM (inactive) | > 100 µM (inactive) | > 100 µM (inactive) | > 100 µM (inactive) | > 100 µM (inactive) | > 100 µM (inactive) | – | > 100 µM (inactive) | > 100 µM (inactive) | > 100 µM (inactive) | > 100 µM (inactive) | –
4 | CCN1C(=O)/C(=C/Nc2ccccc2)S/C1=N/Nc1nc(-c2ccc(O)c(O)c2)cs1 | 3.4 µM (inactive) | 3.66 µM (inactive) | 2.07 µM (inactive) | – | 8.47 µM (inactive) | 40.8 µM (inactive) | 13.2 µM (inactive) | 7.76 | 4.46 µM (inactive) | 12.3 µM (inactive) | 6.4 µM (inactive) | 3.96 µM (inactive) | 5.01 µM (inactive) | 31.8 µM (inactive) | 3.61 µM (inactive) | 32.6 µM (inactive) | 35.2 µM (inactive) | – | 8.02 µM (inactive) | 96.2 µM (inactive)
5 | CCC1OC2C(CC=C(C)C)=C3OC(C)(O)C(C)(CC)C(O)C3=C3OC(=O)C=C1C32 (stereo not drawn) | 10.8 µM (inactive) | – | 15.8 µM (inactive) | 27 µM (inactive) | 39.4 µM (inactive) | 36.2 µM (inactive) | 17.3 µM (inactive) | 33 | 45.8 µM (inactive) | 31.6 µM (inactive) | 26.7 µM (inactive) | 28.4 µM (inactive) | 34.7 µM (inactive) | > 100 µM (inactive) | 42.8 µM (inactive) | – | 21.4 µM (inactive) | > 100 µM (inactive) | 25.4 µM (inactive) | –
6 | CC(C)Cc1ccc(C(C)/C=C2\CCC(CN3CCCC3)C2=O)cc1 (stereo not drawn) | 3.91 µM (inactive) | 1.31 µM (inactive) | 5.81 µM (inactive) | 7.08 µM (inactive) | 7.18 µM (inactive) | 13.3 µM (inactive) | 19.1 µM (inactive) | 4.06 | 16.9 µM (inactive) | 1.84 µM (inactive) | 15.7 µM (inactive) | 14.8 µM (inactive) | 2.77 µM (inactive) | 13.6 µM (inactive) | – | 5.74 µM (inactive) | 17.7 µM (inactive) | 21.6 µM (inactive) | 15.9 µM (inactive) | –
7 | CCOc1ccc2nc(NC(=O)c3c/c(=N\NC(=O)C[N+](C)(C)C)c4ccc(O)cc4o3)sc2c1 | 1.92 µM (inactive) | 1.95 µM (inactive) | 3.85 µM (inactive) | 7.53 µM (inactive) | 2.19 µM (inactive) | 1.74 µM (inactive) | 1.72 µM (inactive) | 5.93 | 3.38 µM (inactive) | 2.15 µM (inactive) | 1.65 µM (inactive) | 0.555 µM (active) | 5.28 µM (inactive) | 6.04 µM (inactive) | – | 2.65 µM (inactive) | 3.04 µM (inactive) | 14.6 µM (inactive) | 11.8 µM (inactive) | –
8 | O=CNC(Cc1c[nH]cn1)C(=O)O (stereo not drawn) | > 100 µM (inactive) | > 100 µM (inactive) | > 100 µM (inactive) | – | > 100 µM (inactive) | > 100 µM (inactive) | > 100 µM (inactive) | > 100 | > 100 µM (inactive) | > 100 µM (inactive) | > 100 µM (inactive) | > 100 µM (inactive) | > 100 µM (inactive) | > 100 µM (inactive) | > 100 µM (inactive) | > 100 µM (inactive) | > 100 µM (inactive) | > 100 µM (inactive) | > 100 µM (inactive) | > 100 µM (inactive)
